Read-outs that look alike come from different tables or passages of the source.
Tests used:
HCT116 cells = assay: Western blot of oncogenic signaling pathways; assay type: cell-based, human; conditions: 48 h
Procedure: (§1) Figure 4 Inhibitory effects of YLT192 on tumor cells. (A) YLT192 inhibited U251 and HCT116 cells proliferation. The EdU incorporation assay was conducted on U251 and HCT116 cells after treated with YLT192 for 24 hours. The EdU-positive (red fluorescent staining) cells and Hoechst staining (blue fluorescent staining) cells represented proliferating and total cells in the fluorescent images, respectively (100×). Quantification was shown on the right panels. (B) YLT192 induced apoptosis of HCT116 cells. HCT116 cells were treated with YLT192 or vehicle for 48 hours followed by flow cytometric analysis of annexin V-FITC and PI staining. […] Typical apoptosis-related proteins caspase 3 and Bax were detected by western blot. […] U251 and HCT116 cells were treated with YLT192 or vehicle for 48 hours and the expression of protein in different signaling pathways were detected by western blot with specific antibodies. […]
(§2) To gain further insight into the molecular mechanism of the inhibitory effects of YLT192 on tumor cells we evaluated the expression of p44/42 MAPK, STAT3, AKT, and mammalian target of rapamycin (mTOR) in U251 and HCT116 cells 48 h after treatment.
(§3) Supplementary Figure S8. […] U251 and HCT116 cells were treated with YLT192 or vehicle for 48 hours and the expression of protein in different signaling pathways were detected by western blot with specific antibodies. […]

U251 cells = assay: Western blot of oncogenic signaling pathways; assay type: cell-based, human; conditions: 48 h
Procedure: as §1, §2, §3

A375 = assay: Inhibition of tumor cell growth; assay type: cell-based; conditions: A-375; A375, human melanoma; 48 hour treatment; means ± SD, n=3
Procedure: (§4) The proliferative inhibitory ability of YLT192 on tumor cells was investigated. […] Inhibition of cell proliferation is a possible approach for cancer treatment. EdU incorporation assay was performed to investigate the anti-proliferative effects of YLT192 against U251 and HCT116 cells. […]
(§5) treatment with YLT192. Data are means ± SD, n=3. cell line cell type IC50(μM)
(§6) HCT116 human colorectal carcinoma 7.4 ±0.5
(§7) A431 human pidermoid carcinoma 7.7 ±0.9
(§8) BxPC-3 human pancreatic cancer 8.2 ±0.6
(§9) Hep G2 human hepatocellular carcinoma 7.9 ±0.5
(§10) SW620 human colorectal carcinoma 7.9 ±1.7
(§11) SKOV-3 human ovarian carcinoma 8.2 ±1.5
(§12) LS147T human colorectal carcinoma 9.0 ±1.1
(§13) PANC-1 human pancreatic cancer 9.8 ±1.9
(§14) BEL7402 human hepatocellular carcinoma 11.3 ±1.1
(§15) MDA-MB-231 human mammary carcinoma 11.9 ±2.1
(§16) SMMC-7721 human hepatocellular carcinoma 12.1 ±1.6
(§17) SPC-A1 human lung cancer 16.4 ±1.4
(§18) MCF-7 human mammary carcinoma 16.8 ±1.7
(§19) Hela human epithelial carcinoma 18.9 ±2.4
(§20) MV4-11 human acute myeloid leukemia 21.9 ±1.9
(§21) COLO-205 human colorectal carcinoma 23.0 ±1.5

B16 = assay: Inhibition of tumor cell growth; assay type: cell-based; conditions: B16, mouse melanoma; 48 hour treatment; means ± SD, n=3
Procedure: as §4, §5, §6, §7, §8, §9, §10, §11, §12, §13, §14, §15, §16, §17, §18, §19, §20, §21

NIH-H1975 = assay: Inhibition of tumor cell growth; assay type: cell-based; conditions: NIH-H1975, human lung cancer; 48 hour treatment; means ± SD, n=3
Procedure: as §4, §5, §6, §7, §8, §9, §10, §11, §12, §13, §14, §15, §16, §17, §18, §19, §20, §21

U251 = assay: Inhibition of tumor cell growth; assay type: cell-based; conditions: U-251; U251, human glioblastoma; 48 hour treatment; means ± SD, n=3
Procedure: as §4, §5, §6, §7, §8, §9, §10, §11, §12, §13, §14, §15, §16, §17, §18, §19, §20, §21

DU145 = assay: Inhibition of tumor cell growth; assay type: cell-based; conditions: DU-145; DU145, human prostate cancer; 48 hour treatment; means ± SD, n=3
Procedure: as §4, §5, §6, §7, §8, §9, §10, §11, §12, §13, §14, §15, §16, §17, §18, §19, §20, §21

tumor cells = assay: Cancer cell viability assays, whole panel; assay type: cell-based

Q: Which “expression of phosphorylated p44/42 MAPK, STAT3, AKT, and mTOR” value (HCT116 cells) does the source give for `CNC(=O)c1cc(Oc2ccc(NC(=O)c3cccc(OC)c3)cc2)ccn1` [YLT192] here?
A: Its value is “dramatically decreased”.

Q: What about the “expression of phosphorylated p44/42 MAPK, STAT3, AKT, and mTOR” value (U251 cells) of the same molecule?
A: The value was “dramatically decreased”.

Q: And the IC50 (A375)?
A: Its IC50 is 12.4 ± 1.1 µM.

Q: What about the IC50 (B16) of the same molecule?
A: Its IC50 is 21.2 ± 2.1 µM.

Q: And the IC50 (NIH-H1975)?
A: Its IC50 is 27.3 ± 1.2 µM.

Q: What about the IC50 (U251) of the same molecule?
A: Its IC50 is 6.5 ± 0.8 µM.

Q: And the IC50 (DU145)?
A: Its IC50 is 22.8 ± 2.6 µM.

Q: What about the IC50 (tumor cells; range for most tumor cell lines of the panel, read-out: Most IC50 against the tumor cells) of the same molecule?
A: Its IC50 is 6 to 20 µM.

Q: And the IC50 (tumor cells; range over the cancer cell panel, read-out: IC50 values in cancer cell viability assays)?
A: The IC50 was 6 to 30 µM.
